According to PubChem BioAssay AID2060497 (Molecular Pharmacology Branch, DTP, NCI, 2025):

Tested on: 317291-083-R-J1-PDC complex spheroids, viability
Assay: Anticancer human tumor 317291-083-R-J1-PDC patient-derived soft tissue sarcoma cell line growth inhibition [GQUAD]
Settings: for IC50: curve of first compound; for viability, T/C: stronger effect = lower value; active means viability on the fitted dose curve at most 10% of control; inactive means the rest
Method in brief: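 Multi-cell-type spheroids of tumor cells with HUVEC and mesenchymal stem cells, treated with drug combinations. Concentrations descend in half-log steps from near clinical Cmax, or from 10 microM where Cmax is unknown; viability read-out.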

[1] = second compound 0.0316 µM, first compound 0.0316 µM
[2] = second compound 0.0316 µM, first compound 0.1 µM
[3] = second compound 0.0316 µM, first compound 0.316 µM
[4] = second compound 0.0316 µM, first compound 1 µM
[5] = second compound 0.0316 µM, first compound 3.16 µM
[6] = second compound 0.0316 µM, first compound 10 µM
[7] = second compound 0.1 µM, first compound 0.0316 µM
[8] = second compound 0.1 µM, first compound 0.1 µM
[9] = second compound 0.1 µM, first compound 0.316 µM
[10] = second compound 0.1 µM, first compound 1 µM
[11] = second compound 0.1 µM, first compound 3.16 µM
[12] = second compound 0.1 µM, first compound 10 µM
[13] = second compound 0.316 µM, first compound 0.0316 µM
[14] = second compound 0.316 µM, first compound 0.1 µM
[15] = second compound 0.316 µM, first compound 0.316 µM
[16] = second compound 0.316 µM, first compound 1 µM
[17] = second compound 0.316 µM, first compound 3.16 µM
[18] = second compound 0.316 µM, first compound 10 µM
[19] = second compound 1 µM, first compound 0.0316 µM
[20] = second compound 1 µM, first compound 0.1 µM
[21] = second compound 1 µM, first compound 0.316 µM
[22] = second compound 1 µM, first compound 1 µM
[23] = second compound 1 µM, first compound 3.16 µM
[24] = second compound 1 µM, first compound 10 µM
[25] = second compound 3.16 µM, first compound 0.0316 µM
[26] = second compound 3.16 µM, first compound 0.1 µM
[27] = second compound 3.16 µM, first compound 0.316 µM
[28] = second compound 3.16 µM, first compound 1 µM
[29] = second compound 3.16 µM, first compound 3.16 µM
[30] = second compound 3.16 µM, first compound 10 µM
[31] = second compound 10 µM, first compound 0.0316 µM
[32] = second compound 10 µM, first compound 0.1 µM
[33] = second compound 10 µM, first compound 0.316 µM
[34] = second compound 10 µM, first compound 1 µM
[35] = second compound 10 µM, first compound 3.16 µM
[36] = second compound 10 µM, first compound 10 µM
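Further: spheroids exposed to compounds for one week before readout.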
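Wherever viability, T/C is given: percent viability relative to DMSO vehicle wells taken as 100%.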

Cc1cccc(N(C)C(=O)C2C(O)CCN2c2nc(C)cc(C(F)(F)F)c2C#N)c1 (centres undefined) + CN(C)c1ccc(Nc2c3ccc(NC(=O)CCN4CCCC4)cc3nc3cc(NC(=O)CCN4CCCC4)ccc23)cc1
inactive: viability, T/C [1] 101% | viability, T/C [2] 107% | viability, T/C [3] 93.1% | viability, T/C [4] 91.9% | viability, T/C [5] 85.5% | viability, T/C [6] 78.1% | viability, T/C [7] 107% | viability, T/C [8] 99.2% | viability, T/C [9] 116% | viability, T/C [10] 84.8% | viability, T/C [11] 75.9% | viability, T/C [12] 83.9% | viability, T/C [13] 103% | viability, T/C [14] 93.3% | viability, T/C [15] 79.9% | viability, T/C [16] 62.9% | viability, T/C [17] 79.8% | viability, T/C [18] 46.5% | viability, T/C [19] 68.3% | viability, T/C [20] 51.1% | viability, T/C [21] 57.4% | viability, T/C [22] 45.1% | viability, T/C [23] 42.6% | viability, T/C [24] 30% | viability, T/C [25] 29.9% | viability, T/C [26] 46.2% | viability, T/C [27] 21.3% | viability, T/C [28] 25.1% | viability, T/C [29] 17.1% | viability, T/C [31] 7.38%
< 31.6 nM: IC50 (second compound 3.16 µM) | IC50 (second compound 10 µM)
548 nM: IC50 (second compound 1 µM)
> 10000 nM: IC50 (second compound 0.0316 µM) | IC50 (second compound 0.1 µM) | IC50 (second compound 0.316 µM)
active: viability, T/C [30] 9.2% | viability, T/C [32] 11.6% | viability, T/C [33] 10.1% | viability, T/C [34] 3.67% | viability, T/C [35] 3.05% | viability, T/C [36] 1.88%

COc1ncnc(C2CC2)c1-c1ncc2cnn(Cc3ccc(-c4nc(C(F)(F)F)cn4C(C)C)cc3)c2n1 + Cc1[nH]c2ccc(F)cc2c1-c1nc2c3cccnc3c3ncccc3c2[nH]1
> 10000 nM: IC50 (second compound 0.0316 µM) | IC50 (second compound 0.1 µM)
200 nM: IC50 (second compound 0.316 µM)
< 31.6 nM: IC50 (second compound 1 µM) | IC50 (second compound 3.16 µM) | IC50 (second compound 10 µM)
inactive: viability, T/C [1] 110% | viability, T/C [2] 77.8% | viability, T/C [3] 84.5% | viability, T/C [4] 72.2% | viability, T/C [5] 64.3% | viability, T/C [6] 92.3% | viability, T/C [7] 85.7% | viability, T/C [8] 96.5% | viability, T/C [9] 68.3% | viability, T/C [10] 63.7% | viability, T/C [11] 93.4% | viability, T/C [12] 65% | viability, T/C [13] 63.3% | viability, T/C [14] 52.8% | viability, T/C [15] 50.4% | viability, T/C [16] 37.2% | viability, T/C [17] 46% | viability, T/C [18] 35.2% | viability, T/C [19] 41.4% | viability, T/C [20] 37.9% | viability, T/C [21] 35.3% | viability, T/C [22] 41.2% | viability, T/C [23] 40.5% | viability, T/C [24] 39.8% | viability, T/C [25] 35.1% | viability, T/C [26] 27.6% | viability, T/C [27] 27.1% | viability, T/C [28] 23.3% | viability, T/C [29] 23.2% | viability, T/C [30] 30.5% | viability, T/C [31] 35.8% | viability, T/C [32] 35.8% | viability, T/C [33] 31.1% | viability, T/C [34] 33.8% | viability, T/C [35] 33.5% | viability, T/C [36] 28.3%
